Assay [1] relates to Mycobacterium tuberculosis strain EH 4.0 (361.269). The experiment in a line: Test 4: MIC determination against M. tuberculosis, resazurin fluorescence read-out, different strain. It counts as cell-based. Particulars: read-out: pIC50 (converted). The source says: Test 4 (See Also Test 1 Above; in this Test a Different Strain of Mycobacterium tuberculosis Strain is Employed)
Appropriate solutions of experimental and reference compounds were made in 96 well plates with 7H9 medium. Samples of Mycobacterium tuberculosis strain EH 4.0 (361.269) were taken from cultures in stationary growth phase. These were first diluted to obtain an optical density of 0.3 at 600 nm wavelength and then diluted 1/100, resulting in an inoculum of approximately 5×10 exp5 colony forming units per well. Plates were incubated at 37° C. in plastic bags to prevent evaporation. After 7 days, resazurin was added to all wells.

The subject of assay [2] is Mycobacterium tuberculosis strain H37Rv. Nature of the assay: Test 1: MIC determination against M. tuberculosis, resazurin fluorescence read-out. It counts as cell-based. The settings on record: Test 1, strain H37Rv. A general note: Alamar Blue is a resazurin reagent that responds to reducing activity.
The next assay deals with M. tuberculosis H37Rv. Particulars: strain H37Rv, inside macrophages; cited from earlier work.
The subject of the next assay is MDR tuberculosis. The settings on record: stated in J. Medicinal Chemistry, 2014, 57 (12); cited from earlier work.
The subject of assay [3] is replicating and non-replicating bacteria. The settings on record: stated in J. Medicinal Chemistry, 2014, 57 (12); cited from earlier work.

Data on 24 compounds can be found in patent publication US20180155341A1, “Antibacterial Compounds” (Janssen Sciences Ireland UC, priority 2015, published 2018).

Converted amounts (≈) assume the structure as drawn. A value given as a limit tells only on which side of the number the result lay.

On to `CCc1nc2ncc(Cl)cn2c1C(=O)NCc1ccc2nc(N3CC4(CC(c5ccc(OC(F)(F)F)cc5)C4)C3)ccc2c1` [Compound 1], for which the IC50 in assay [1] is 39.8 nM.

Turning to `CCc1nc2ccc(Cl)cn2c1C(=O)NCc1ccc2nc(N3CC4(CC(c5ccc(OC(F)(F)F)cc5)C4)C3)ccc2c1` [Compound 2], the IC50 in assay [2] (first test) is 676 nM; in assay [2] (repeated (2nd) test) it was 692 nM; in assay [2] (repeated (3rd) test) it was 589 nM; in assay [1] it was 200 nM.

Take `CCc1nc2ccc(Cl)cn2c1C(=O)NCc1ccc2nc(N3CCC(c4ccc(OC(F)(F)F)cc4)CC3)ccc2c1` [Compound 3]: in assay [1], the IC50 was 50.1 nM.

With `CCc1nc2ccc(Cl)cn2c1C(=O)NCc1ccc2nc(N3CC4CC(F)CC4C3)ccc2c1` (centres unmarked) [Compound 4], in assay [1], the IC50 is 31.6 nM.

For the compound `Cc1nc2sccn2c1C(=O)NCc1ccc2nc(N3CCC(c4ccc(OC(F)(F)F)cc4)CC3)ccc2c1` [Compound 7], in assay [1], the IC50 is 200 nM.

With `CCc1nc2n(c1C(=O)NCc1ccc3nc(N4CCC(c5ccc(OC(F)(F)F)cc5)CC4)ccc3c1)CCN(C)C2` [Compound 8], the IC50 in assay [1] is 158 nM.

For the compound `Cc1nc2sccn2c1C(=O)NCc1ccc2nc(N3CCN(c4ccc(OC(F)(F)F)cc4)CC3)ccc2c1` [Compound 9], in assay [1], the IC50 is 141 nM.

Turning to `CCc1nc2n(c1C(=O)NCc1ccc3nc(N4CCN(c5ccc(OC(F)(F)F)cc5)CC4)ccc3c1)CCCC2` [Compound 10], the IC50 in assay [1] was 126 nM.

With `Cc1nc2sccn2c1C(=O)NCc1ccc2nc(N(C)CCc3ccc(OC(F)(F)F)cc3)ccc2c1` [Compound 11], in assay [1], the IC50 was 355 nM.

Regarding `CCc1c(C(=O)NCc2ccc3nc(N4CC5(CC(c6ccccc6)C5)C4)ccc3c2)c2cc(Cl)cnc2n1C` [Compound 12], the IC50 in assay [1] was over 12600 nM.

For `CCc1c(C(=O)NCc2ccc3nc(N4CC(c5ccccc5)C4)ccc3c2)c2cc(Cl)cnc2n1C` [Compound 13], in assay [1], the IC50 is over 12600 nM.

Take `CCc1nc2ccc(Cl)cn2c1C(=O)NCc1ccc2nc(N(C)Cc3ccc(OC(F)(F)F)cc3)cnc2c1` [Compound 15]: the IC50 in assay [1] was 631 nM.

With `CCc1nc2ccc(Cl)cn2c1C(=O)NCc1ccc2nc(N(C)Cc3ccc(OC(F)(F)F)cc3)ccc2c1` [Compound 17], in assay [1], the IC50 was 79.4 nM.

In the case of `CCc1nc2ccc(Cl)cn2c1C(=O)NCc1ccc2cc(N(C)Cc3ccc(OC(F)(F)F)cc3)cnc2c1` [Compound 18], in assay [1], the IC50 is 1000 nM.

On to `Cc1nc2sccn2c1C(=O)NCc1ccc2nc(N(C)Cc3ccc(OC(F)(F)F)cc3)ccc2c1` [Compound 19], for which, in assay [1], the IC50 is 282 nM.

Regarding `CCc1nc2ccc(Cl)cn2c1C(=O)NCc1ccc2ncc(N(C)Cc3ccc(OC(F)(F)F)cc3)cc2c1` [Compound 20], in assay [1], the IC50 was 794 nM.

In the case of `CCc1c(C(=O)NCc2ccc3nc(N4CCC(c5ccc(OC(F)(F)F)cc5)CC4)ccc3c2)c2cc(Cl)ccc2n1C` [Compound 21], the IC50 in assay [1] was over 12600 nM.

Take `CCc1c(C(=O)NCc2ccc3nc(N4CCC(c5ccc(OC(F)(F)F)cc5)CC4)ccc3c2)c2cc(Cl)cnc2n1C` [Compound 22]: the IC50 in assay [1] was over 12600 nM.

Take `O=C(NCc1ccc2nc(N3CCC(c4ccc(OC(F)(F)F)cc4)CC3)ccc2c1)c1cc2c([nH]1)CCCC2` [Compound 23]: in assay [1], the IC50 was over 12600 nM.

`CCc1nc2ccc(Cl)cn2c1C(=O)NCc1ccc2nc(N3CCC(F)(F)CC3)ccc2c1` [Compound 24]: the IC50 in assay [1] is 6.31 nM.

In the case of `CCc1nc2ccc(Cl)cn2c1C(=O)NCc1ccc2nc(N3CC4(CC(F)C4)C3)ccc2c1` [Compound 25], the IC50 in assay [1] was 178 nM.

For `Cc1nn2ccccc2c1C(=O)NCc1ccc2nc(N3CCC(c4ccc(OC(F)(F)F)cc4)CC3)ccc2c1` [Compound 26], in assay [1], the IC50 is 398 nM.

With `Cc1nn2ccccc2c1C(=O)NCc1ccc2nc(N3CCN(c4ccc(OC(F)(F)F)cc4)CC3)ccc2c1` [Compound 27], in assay [1], the IC50 was 794 nM.

In the case of `CCc1nc2ccc(Cl)cn2c1C(=O)NCc1ccc(N2CCC(c3ccc(OC(F)(F)F)cc3)CC2)cc1` [Compound Q203], the MIC50 in the assay with M. tuberculosis H37Rv was 0.28 nM (≈ 0.156 ng/mL). For the same compound, the “activity against MDR tuberculosis” value in the assay with MDR tuberculosis is “activity against MDR tuberculosis”. In addition, the “activity against replicating and non-replicating bacteria” value in assay [3] is “highly active”.
